Columns and labels:
[1] = tested on: HeLa cells; test: [^3H]-triptolide competition binding in HeLa cells; settings: 1 or 10 μM competitor one hour before [^3H]-triptolide, HeLa cells
Protocol: To gain insight into triptolide's mechanism of action Applicants sought to determine its specific binding activity utilizing a system employing [^3H]-triptolide. In addition to competition with 1 μM or 10 μM unlabeled triptolide, Applicants also measured the binding affinities of triptolide analogs (FIG. 1A). These analogs have been previously described and differ structurally from triptolide in the hydrolysis of the 12,13 epoxide (2), and formation of the ketone at the C-14 hydroxyl (3) (FIG. 1A). […] The effective interaction of these analogs with a presumed triptolide binding entity led us to their use in subsequent experiments addressing the mode of triptolide's biological functions.
To address first the nature of triptolide binding within the cell, Applicants determined this interaction was reversible as [^3H]-triptolide labeling was out competed by subsequent addition of excess unlabeled triptolide (FIG. 2A). […] Although 25% of the total cellular counts (i.e., representing bound triptolide) were found in the cytosolic fraction, it is uncertain whether this is specific binding or simply that free triptolide had dissociated from its binding protein due to experimental manipulation during fractionation. Since the data thus far had only shown binding within whole cells, Applicants next determined if this triptolide binding protein could be further characterized and/or enriched by its association with chromatographic reagents. HeLa cells were once again labeled with [^3H]-triptolide and total cell lysates were then passed over the anion exchange resin DEAE. Batch elutions with increasing NaCl concentrations were used to disassociate interactions of variable charge. […] Importantly, Applicants also observed that [^3H]-triptolide would only bind to intact cells in culture but would not bind to any component of a total cellular lysate as assessed by interaction with the DEAE resin. Negative results for a triptolide binding interaction were also observed with DNA-cellulose and the cation exchange resin SPFF (sulphopropyl).
Labeling studies were performed by the addition of approximately 30 nM [^3H]-triptolide directly into the culture media for one hour at 37° C. For cold competition studies, 1 μM triptolide was incubated with the cells for one hour before or after the addition of [^3H]-triptolide. Triptolide analog studies followed a similar protocol where concentrations used for competition were either 1 or 10 μM added before [^3H]-triptolide. Medium was removed and cells were washed 3× in cold PBS. Total cell lysates were prepared (150 mM NaCl, 50 mM Tris-HCl pH 7.4, 1 mM EDTA, 1% Triton X-100, and Complete protease inhibitors (Roche)) and protein was quantitated before measuring the [^3H]-triptolide binding activity via liquid scintillation.

[2] = tested on: HeLa cells; test: HeLa cell viability by trypan blue dye exclusion; assay type: cell-based
Protocol: Since extracellular calcium concentration can influence triptolide binding Applicants sought to determine if the presence of calcium influences the rate of triptolide-mediated apoptosis. To first establish the growth rate of HeLa in media±calcium, cell counts were performed over a 72 hour time course. Although calcium-free media caused cells to detach more easily, the overall growth rates were similar where cell doubling occurred every 24 hours on average (FIG. 3B). For triptolide experiments, cells were initially equilibrated in medium±calcium for 16 hours before the addition of 100 nM triptolide. Cell death was assessed by trypan blue dye exclusion at 24, 48, and 72 hours post drug treatment. In the presence of calcium-containing medium, triptolide induced at least 50% cell death by 24 hours with this trend continuing through later time points (FIG. 3C).
Applicants' results have implicated reversible binding of triptolide to a potential binding protein or complex that can be regulated by calcium. To understand if triptolide function is further separable between cell death and NFκB inhibition, Applicants examined the effect of concentration on these two endpoints. HeLa cells were cultured in the presence of 0, 10, 25, 50, or 100 nM of triptolide and separately assessed for cell death or the ability to suppress NFκB transactivation promoted by TNF-α. Following 24-48 hours of culture, viable cells were recovered and counted. Following 24 hours, triptolide concentrations from 25-100 nM caused greater than 50% of the cells to undergo cell death as assessed by detachment, clumping and the failure to exclude trypan blue dye. […] This is consistent with previous studies showing that low doses of triptolide cause cell cycle arrest rather than apoptosis (Kiviharju, et al., 2002, Clin Cancer Res 8, 2666-2674).
Based upon Applicants' studies examining the concentration dependent effect of triptolide on the two measured biological endpoints, cell death and transcriptional repression, Applicants wanted to determine how modulating triptolide's structure may also discriminate between the two pathways. For cell viability assays, HeLa cells were incubated with 0, 0.1, 1, or 10 μM of each analog or triptolide for 24 hours and then counted using trypan blue dye exclusion. […] NFκB transcriptional inhibition was measured using the κB-luciferase assay as previously described following 5 hours of incubation with each analog (0-10 μM) and TNF-α addition.
HeLa cells were incubated in DMEM or SMEM (Gibco) media+10% FBS and maintained at 37° C. in 5% CO2 for all experiments. HeLa cell viability was assessed by trypan blue dye exclusion, as well as by morphological examination (non-viable cells were rounded and detached from culture plate).

CC(C)[C@]12O[C@H]1[C@@H]1O[C@]13[C@]1(O[C@H]1C[C@H]1C4=C(CC[C@@]13C)C(=O)OC4)[C@@H]2O [triptolide, Triptolide]
displacement of [^3H]-triptolide binding [1]: significantly competed | cell growth ([2]; 10 nM): efficient at arresting cell growth | cell death ([2]; 0.1 μM, 24 hours, analog study): 60% | cell death ([2]; 0.1 μM, 24 hours, analog study, listed as Triptolide): greater than 50% | cell death ([2]; 100 nM, calcium-containing medium, by 24 hours): at least 50% | cell death at the higher concentrations ([2]; 1 or 10 μM versus 0.1 μM, 24 hours): no significant increase | cell death ([2]; 25-100 nM, 24 hours): greater than 50% | cell death ([2]; 25-100 nM, 48 hours): nearly all cells treated within this concentration range of triptolide died | minimal incubation time required for commitment to apoptosis ([2]; HeLa cells): three to four

Reference: patent US20080188449A1, “Treatment of Conditions Caused By Calcium Abnormalities” (priority 2004, published 2008)
